Data as given in patent US20180092358A1, “HERBICIDAL MIXTURES” (Syngenta Participations AG, priority 2015, published 2018).

Assays:
Assay type in all cases: in vivo
Zea mays [1] = assay: Post-emergence herbicidal activity (glasshouse); conditions: application post-emergence, 1000 g/Ha, evaluated after 13 days, scale 0-5
Experimental: (§1) Seeds of a variety of test species were sown in standard soil in pots. After 8 days cultivation (post-emergence) under controlled conditions in a glasshouse (at 24/16° C., day/night; 14 hours light; 65% humidity), the plants were sprayed with an aqueous spray solution derived from the formulation of the technical active ingredient in acetone/water (50:50) solution containing 0.5% Tween 20 (polyoxyethelyene sorbitan monolaurate, CAS RN 9005-64-5). The test plants were then grown in a glasshouse under controlled conditions (at 24/16° C., day/night; 14 hours light; 65% humidity) and watered twice daily. After 13 days, the test was evaluated (5=total damage to plant; 0=no damage to plant).

Echinochloa crus-galli [2] = assay: Post-emergence herbicidal activity (glasshouse); conditions: application post-emergence, 1000 g/Ha, evaluated after 13 days, scale 0-5
Experimental: as §1

Amaranthus retroflexus [3] = assay: Post-emergence herbicidal activity (glasshouse); conditions: application post-emergence, 1000 g/Ha, evaluated after 13 days, scale 0-5
Experimental: as §1

Setaria faberi [4] = assay: Post-emergence herbicidal activity (glasshouse); conditions: application post-emergence, 1000 g/Ha, evaluated after 13 days, scale 0-5
Experimental: as §1

Abutilon theophrasti [5] = assay: Post-emergence herbicidal activity (glasshouse); conditions: application post-emergence, 1000 g/Ha, evaluated after 13 days, scale 0-5
Experimental: as §1

Zea mays [6] = assay: Pre-emergence herbicidal activity (glasshouse); conditions: application pre-emergence, 1000 g/Ha, evaluated after 13 days, scale 0-5
Experimental: as §1, with “After” for “After 8 days”, “for one day (pre-emergence)” for “(post-emergence)”

Echinochloa crus-galli [7] = assay: Pre-emergence herbicidal activity (glasshouse); conditions: application pre-emergence, 1000 g/Ha, evaluated after 13 days, scale 0-5
Experimental: as §1, with “After” for “After 8 days”, “for one day (pre-emergence)” for “(post-emergence)”

Amaranthus retroflexus [8] = assay: Pre-emergence herbicidal activity (glasshouse); conditions: application pre-emergence, 1000 g/Ha, evaluated after 13 days, scale 0-5
Experimental: as §1, with “After” for “After 8 days”, “for one day (pre-emergence)” for “(post-emergence)”

Setaria faberi [9] = assay: Pre-emergence herbicidal activity (glasshouse); conditions: application pre-emergence, 1000 g/Ha, evaluated after 13 days, scale 0-5
Experimental: as §1, with “After” for “After 8 days”, “for one day (pre-emergence)” for “(post-emergence)”

Abutilon theophrasti [10] = assay: Pre-emergence herbicidal activity (glasshouse); conditions: application pre-emergence, 1000 g/Ha, evaluated after 13 days, scale 0-5
Experimental: as §1, with “After” for “After 8 days”, “for one day (pre-emergence)” for “(post-emergence)”

Alopecurus myosuroides [11] = assay: Post-emergence herbicidal activity (glasshouse); conditions: application post-emergence, 1000 g/Ha, evaluated after 13 days, scale 0-5
Experimental: as §1

Alopecurus myosuroides [12] = assay: Pre-emergence herbicidal activity (glasshouse); conditions: application pre-emergence, 1000 g/Ha, evaluated after 13 days, scale 0-5
Experimental: as §1, with “After” for “After 8 days”, “for one day (pre-emergence)” for “(post-emergence)”

With CCO[C@@H]1C(O)N(c2cc(C(C)(C)C)on2)C(=O)N1C (single isomer, unassigned) [Compound 1.6] the “damage to plant score, ZEAMX” value (Zea mays [1]) was 4, the “damage to plant score, ECHCG” value (Echinochloa crus-galli [2]) was 5 and the “damage to plant score, AMARE” value (Amaranthus retroflexus [3]) was 5. For the same compound, the “damage to plant score, SETFA” value (Setaria faberi [4]) was 5, the “damage to plant score, ABUTH” value (Abutilon theophrasti [5]) was 5 and the “damage to plant score, ZEAMX” value (Zea mays [6]) was 2. The “damage to plant score, ECHCG” value (Echinochloa crus-galli [7]) was 4, the “damage to plant score, AMARE” value (Amaranthus retroflexus [8]) was 5 and the “damage to plant score, SETFA” value (Setaria faberi [9]) was 1. For the same compound, the “damage to plant score, ABUTH” value (Abutilon theophrasti [10]) was 5.
In the case of CON1C(=O)N(c2cc(C(F)(F)F)ccn2)C(O)C1C (stereo not shown) [Compound 1.1, 4-hydroxy-1-methoxy-5-methyl-3-[4-(trifluoromethyl)-2-pyridyl]imidazolidin-2-one], the “damage to plant score, ZEAMX” value (Zea mays [1]) is reported as 2, the “damage to plant score, ECHCG” value (Echinochloa crus-galli [2]) is reported as 5 and the “damage to plant score, AMARE” value (Amaranthus retroflexus [3]) is reported as 5. The “damage to plant score, ALOMY” value (Alopecurus myosuroides [11]) was 5, the “damage to plant score, SETFA” value (Setaria faberi [4]) was 5 and the “damage to plant score, ABUTH” value (Abutilon theophrasti [5]) was 5. For the same compound, the “damage to plant score, ZEAMX” value (Zea mays [6]) was 2, the “damage to plant score, ECHCG” value (Echinochloa crus-galli [7]) was 4 and the “damage to plant score, AMARE” value (Amaranthus retroflexus [8]) was 5. The “damage to plant score, ALOMY” value (Alopecurus myosuroides [12]) was 4, the “damage to plant score, SETFA” value (Setaria faberi [9]) was 5 and the “damage to plant score, ABUTH” value (Abutilon theophrasti [10]) was 5.
CC1C(O)N(c2cc(C(F)(F)F)ccn2)C(=O)N1C (stereo not shown) [Compound 1.2, 4-hydroxy-1,5-dimethyl-3-[4-(trifluoromethyl)-2-pyridyl]imidazolidin-2-one] was tested, and the “damage to plant score, ZEAMX” value (Zea mays [1]) was 4, the “damage to plant score, ECHCG” value (Echinochloa crus-galli [2]) was 5 and the “damage to plant score, AMARE” value (Amaranthus retroflexus [3]) was 5. The “damage to plant score, ALOMY” value (Alopecurus myosuroides [11]) was 5, the “damage to plant score, SETFA” value (Setaria faberi [4]) was 5 and the “damage to plant score, ABUTH” value (Abutilon theophrasti [5]) was 5. For the same compound, the “damage to plant score, ZEAMX” value (Zea mays [6]) was 3, the “damage to plant score, ECHCG” value (Echinochloa crus-galli [7]) was 4 and the “damage to plant score, AMARE” value (Amaranthus retroflexus [8]) was 5. For the same compound, the “damage to plant score, ALOMY” value (Alopecurus myosuroides [12]) was 4, the “damage to plant score, SETFA” value (Setaria faberi [9]) was 5 and the “damage to plant score, ABUTH” value (Abutilon theophrasti [10]) was 5.
CCOC1C(O)N(c2cc(C(F)(F)F)ccn2)C(=O)N1C (stereo not shown) [Compound 1.3, 5-ethoxy-4-hydroxy-1-methyl-3-[4-(trifluoromethyl)-2-pyridyl]imidazolidin-2-one] was tested, and the “damage to plant score, ZEAMX” value (Zea mays [1]) was 4, the “damage to plant score, ECHCG” value (Echinochloa crus-galli [2]) was 5 and the “damage to plant score, AMARE” value (Amaranthus retroflexus [3]) was 5. The “damage to plant score, ALOMY” value (Alopecurus myosuroides [11]) was 5, the “damage to plant score, SETFA” value (Setaria faberi [4]) was 5 and the “damage to plant score, ABUTH” value (Abutilon theophrasti [5]) was 5. The “damage to plant score, ZEAMX” value (Zea mays [6]) was 3, the “damage to plant score, ECHCG” value (Echinochloa crus-galli [7]) was 5 and the “damage to plant score, AMARE” value (Amaranthus retroflexus [8]) was 5. The “damage to plant score, ALOMY” value (Alopecurus myosuroides [12]) was 4, the “damage to plant score, SETFA” value (Setaria faberi [9]) was 5 and the “damage to plant score, ABUTH” value (Abutilon theophrasti [10]) was 5.
For CN1CC(O)N(c2cc(C(F)(F)F)ccn2)C1=O (stereo not shown) [Compound 1.4, 4-hydroxy-1-methyl-3-[4-(trifluoromethyl)-2-pyridyl]imidazolidin-2-one], the “damage to plant score, ZEAMX” value (Zea mays [1]) was 5, the “damage to plant score, ECHCG” value (Echinochloa crus-galli [2]) was 5 and the “damage to plant score, AMARE” value (Amaranthus retroflexus [3]) was 5. For the same compound, the “damage to plant score, ALOMY” value (Alopecurus myosuroides [11]) was 5, the “damage to plant score, SETFA” value (Setaria faberi [4]) was 5 and the “damage to plant score, ABUTH” value (Abutilon theophrasti [5]) was 5. For the same compound, the “damage to plant score, ZEAMX” value (Zea mays [6]) was 3, the “damage to plant score, ECHCG” value (Echinochloa crus-galli [7]) was 5 and the “damage to plant score, AMARE” value (Amaranthus retroflexus [8]) was 5. For the same compound, the “damage to plant score, ALOMY” value (Alopecurus myosuroides [12]) was 4, the “damage to plant score, SETFA” value (Setaria faberi [9]) was 4 and the “damage to plant score, ABUTH” value (Abutilon theophrasti [10]) was 5.
For CC1C(O)N(c2cc(C(F)(F)F)n(C)n2)C(=O)N1C (stereo not shown) [Compound 1.5, 4-hydroxy-1,5-dimethyl-3-[1-methyl-5-(trifluoromethyl)pyrazol-3-yl]imidazolidin-2-one], the “damage to plant score, ZEAMX” value (Zea mays [1]) was 4, the “damage to plant score, ECHCG” value (Echinochloa crus-galli [2]) was 5 and the “damage to plant score, AMARE” value (Amaranthus retroflexus [3]) was 5. The “damage to plant score, ALOMY” value (Alopecurus myosuroides [11]) was 5, the “damage to plant score, SETFA” value (Setaria faberi [4]) was 5 and the “damage to plant score, ABUTH” value (Abutilon theophrasti [5]) was 5. For the same compound, the “damage to plant score, ZEAMX” value (Zea mays [6]) was 4, the “damage to plant score, ECHCG” value (Echinochloa crus-galli [7]) was 4 and the “damage to plant score, AMARE” value (Amaranthus retroflexus [8]) was 5. For the same compound, the “damage to plant score, ALOMY” value (Alopecurus myosuroides [12]) was 4, the “damage to plant score, SETFA” value (Setaria faberi [9]) was 4 and the “damage to plant score, ABUTH” value (Abutilon theophrasti [10]) was 5.
